For data set [1], the system named is HepG2 cells. In words: Glucose uptake (Glucose Uptake-Glo). It counts as cell-based. As to conditions: Homo sapiens, read-out: % increase in Glucose Uptake.
The test system of data set [2] is Very long-chain acyl-CoA dehydrogenase (VLCAD) primary fibroblasts GM17475. In words: Total NAD+ + NADH and NAD+ (NAD/NADH-Glo), VLCAD fibroblasts GM17475. The data set is classed as cell-based. Conditions: Homo sapiens, Fibroblast, VLCAD GM17475 P10, assay condition A, 24h, read-out: Increase in Total NAD+ + NADH. The method, then: (§1) Primary adherent fibroblasts were cultured in minimum essential medium (MEM) (Gibco, 25030081) supplemented with 2 mM L-Glutamine (Gibco, 25030081), 15% fetal bovine serum (FBS) (Gibco, 26400044) and 1% penicillin/streptomycin (Gibco, 5140122) at 37° C. and 5% CO2. Cells were collected for either passaging or experiment at ˜70-80% confluence. Cells were obtained by trypsinization and seeded in cell culture microplates either white plate (Thermo Fisher Scientific, 152028) for luminescent measurement or black plate (Thermo Fisher Scientific, 165305) for fluorescent based read out for different assays listed below. Cells were obtained by trypsinization and […] were seeded and allowed to adhere for 16-18 hours to have confluency around 70-80% in the cell well with culture media. After 24 hours prior to measurements (37° C., 5% CO2) media was changed to Dulbecco's Modified Eagle Medium (DMEM, Agilent Seahorse cat #103575-100) with the appropriate supplements as stated below.
(§2) Primary fibroblasts assayed were Propionic Acidemia (PA) (GM03590 Coriell Institute for Medical Research, Tsi 6337 Trans-Hit Bio), Methylmalonic Acidemia (MMA) (Tsi 5224 Trans-Hit Bio), Subnormal activation of pyruvate dehydrogenase complex (PDH) (GM01503 Coriell Institute for Medical Research), Very long-chain acyl-CoA dehydrogenase (VLCAD) (GM17475), Leigh Syndrome (LS) (GM03672, GM13411 Coriell Institute for Medical Research), Pyruvate Carboxylase Deficiency (PC) (GM00444 Coriell Institute for Medical Research). 10 μM of Compounds were added for 2 hours in PA, MMA lines and for 24h for the other fibroblast lines.
(§3) Assay was performed according to manufacturer instructions (NAD/NADH-Glo Assay Promega, G9072). The NAD/NADH-Glo Assay is a bioluminescent assay for detecting total oxidized and reduced nicotinamide adenine dinucleotides (NAD+ and NADH, respectively) from which ratio of NAD/NADH can be calculated. Briefly, for every assay a 12-point standard curve was prepared ranging from 400 nM to 0.625 nM. Media was removed and replaced with 50 μl of PBS for both assays.
(§4) For individual NAD+ and NADH measurement, 50 μl of 1% DTAB (Sigma Cat #D5047) (cell lysis reagent) in 0.2N NaOH was added to the plate and a total 100 μl of lysate was split into two plates with 50 μl each. 25 μl of 0.4N HCl were added to the NAD+ plate and both NAD+ and NADH plate were heated at 60° C. for 15 minutes. The acid and heat treatment destroyed NADH allowing individual NAD+ measurement while heating in basic conditions destroys NAD+ allowed individual NADH measurements. The plates were allowed to come to room temperature for 10 minutes and Trizma base (Sigma, T1699) was added to the NAD+ plate to neutralize the acid and HCl Trizma hydrochloride (Sigma, T2694) was added to the NADH plate. The NADNADH glo reagent was prepared by adding: 625 μl of NAD cycling substrate, 125 μl of reductase, 125 μl of reductase substrate, 125 μl NAD cycling enzyme to total of the 25 ml of NAD GLO reagent. 1:1 ratio of total volume of reagent was added to the individual NAD+, NADH measurement (total 100 μl) and 50 μl for total NAD/NAH measurement. Luminescence was read between 30-60 minutes within the linear range.
(§5) A total dead cell count was performed as described in Example 817 and only alive cells were used for analysis.

Data set [3] has as its system Propionic Acidemia (PA) primary fibroblasts GM00371. In words: Mitochondrial respiration, XFe96 Extracellular Flux Analyzer (OCR/ECAR), PA fibroblasts GM00371. The data set is classed as cell-based. Conditions: Homo sapiens, Fibroblast.
Data set [4] concerns primary fibroblasts (healthy controls and PA, MMA, BCKDK, PDH, VLCAD, LS, PC, GA, VLCFA, KSS, FXN, HD). In words: Measurement of ROS (H2DCFDA) in primary fibroblasts. It counts as cell-based, human. As to conditions: Homo sapiens, procedure Example 812, Assay Condition C. An outline of the steps:
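Patient and healthy-control primary fibroblasts switched to supplemented DMEM 24 h before assay, then treated with compound (10 μM) plus H2DCFDA (22 μM) for 2 h (PA, MMA lines) or 24 h (other lines). Kinetic fluorescence at 492/527 nm over 60 min; only live cells analysed.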

In data set [5] the test system is Subnormal activation of pyruvate dehydrogenase complex (PDH) primary fibroblasts GM01503 (GM1503A). Briefly: Total NAD+ + NADH and NAD+ (NAD/NADH-Glo), PDH fibroblasts GM01503. The data set is classed as cell-based. Conditions: Homo sapiens, Fibroblast, PDH GM1503A P10, assay condition A, 24h, read-out: Increase in Total NAD+ + NADH. The procedure:
as §1, §2, §3, §4, §5

Data set [6] deals with Bronchial epithelial cells (BE3C system). Briefly: BioMAP BE3C system (IL-1β, TNFα, IFNγ). As to conditions: Homo sapiens, Epithelial cell, 24 h; 10 uM; procedure of Example 831; read-out: % decrease in MMP-1. It counts as cell-based, human.
The subject of data set [7] is Keratinocytes co-cultured with dermal fibroblast (KF3CT system). In words: BioMAP KF3CT system (IL-1β, TNFα, IFNγ, TGFβ). The data set is classed as cell-based, human. The method, then:
(§6) The BioMAP platform (BioMAP® Diversity PLUS® Panel from Eurofins) is an in vitro phenotypic profiling technology that screened the compounds of the present disclosure (hereafter indicated as test agents) in human primary cell-based systems modelling complex tissue and disease states. The BioMAP assays were performed using the Eurofin's BioMAP Technology Platform as (see references 1 to 13 in the example 824 section) to model different diseases on primary cell-based model systems. These systems consisted of either single primary cell types or co-culture cells. Adherent cell types were cultured or co-cultured in 96 or 384-well plates until confluence followed by the addition of compounds prepared in DMSO at a final concentration of ≤0.1%. In each cell-based system, primary cells from heathy donors (2-6 donors) were pooled and treated with compounds at 1 and 10 μM dose 1h prior to stimulation and remain in culture as indicated in Example 825, Example 826, Example 827, Example 828, Example 829, Example 830, Example 831, Example 832, Example 833, Example 834, Example 835, Example 836 and Example 837. For on the BioMAP® Diversity PLUS® Panel, please see the following references, which are incorporate herein.
Following the general procedure as described in Example 824, Keratinocytes were co-cultured with dermal fibroblast (KF3CT system) and treated with IL-1β, TNFα, IFNγ and TGFβ for 24h in the presence or absence of the compounds to model psoriasis, dermatitis and skin biology. Biomarkers read out were; MCP-1, ICAM-1, IP-10, IL-8, MIG, IL-1α, MMP-9, PAI-1, SRB, TIMP-2, uPA.

Data set [8] relates to Peripheral blood mononuclear cells co-cultured with B-cells (BT system).
Data set [9] deals with Venular Endothelial cells (HUVEC) (3C system). In words: BioMAP 3C system (IL-1β, TNFα, IFNγ). The data set is classed as cell-based, human. Conditions: 10 uM; procedure of Example 825. The procedure:
as §6
Following the general procedure as described in Example 824, Venular Endothelial cells (HUVEC) (3C system) were treated with IL-1β, TNFα, IFNγ for 24h to model Th1 driven cardiovascular and chronic inflammation diseases in the presence or absence of the compounds. Biomarker read out were; Tissue Factor, ICAM-1, E-selectin, uPAR (CD87), IL-8, MIG, HLA-DR, proliferation and SRB (Sulfo-rhodamine i.e. staining for protein content).

The test system of data set [10] is Dermal fibroblasts (HDF3CGF system). In words: BioMAP HDF3CGF system (IL-1β, TNFα, IFNγ, EGF, bFGF, PDGF-BB). It counts as cell-based, human. As to conditions: Homo sapiens, Fibroblast, 72 h; 10 uM; read-out: % increase in 72 Hour Proliferation.
Data set [11] has as its system Coronary artery smooth muscle cells (CASM3C system). In words: BioMAP CASM3C system (IL-1β, TNFα, IFNγ). The data set is classed as cell-based, human.
In data set [12] the test system is Venular Endothelial cells (HUVEC) (4H system). In words: BioMAP 4H system (IL-4 and histamine). The data set is classed as cell-based, human. As to conditions: 10 uM; procedure of Example 826.
Data set [13] deals with Bronchial epithelial cells co-cultured with dermal fibroblast (BF4T system). In words: BioMAP BF4T system (TNFα and IL-4). It counts as cell-based, human. Conditions: 10 uM, procedure of Example 830.
The test system of data set [14] is Peripheral blood mononuclear cells co-cultured with B-cells (BT system). In words: cells. As to conditions: Homo sapiens, 72 h, read-out: % decrease in sIL-17.
For data set [15], the system named is Peripheral blood mononuclear cells co-cultured with venular endothelial cells (HUVEC) (LPS system). In words: BioMAP LPS system. It counts as cell-based, human. Conditions: procedure of Example 827.

SMILES strings stand for the structures. Like-named read-outs stand apart in the source and are kept apart here.

Regarding `CC(=O)C(C(C)=O)C(=O)SCCNC(=O)CCNC(=O)[C@H](O)C(C)(C)CO` [Compound 397, (2R)—N-[2-([2-[(2-acetyl-3-oxobutanoyl)sulfanyl]ethyl]arbamoyl)ethyl]-2,4-dihydroxy-3,3-dimethylbutanamide], the activation at 10 µM in data set [1] (10 uM) was not below 20%; in data set [2], not below 10%; in [5] it was not below 10%. Also, the activation at 50 µM in [3] (assay condition C (10 mM glucose, 10% FBS), read-out: Increase in Maximal Respiratory Capacity AUC) was not below 10%. Also, the inhibition at 10 µM in data set [4] (Fibroblast, PDH GM01503, read-out: Decreased ROS by at least 10%) was not below 10%; in data set [4] (Fibroblast, PDH GM01503, read-out: Decreased ROS by at least 30%) it was not below 30%; in data set [4] (FXN GM04078, read-out: Decreased ROS by at least 30%), not below 30%.

For `COC(=O)CCC(=O)SCCNC(=O)CCNC(=O)[C@H](OC(C)=O)C(C)(C)CO` [Compound 213, methyl 4-[(2-[3-[(2R)-2-(acetyloxy)-4-hydroxy-3,3-dimethylbutanamido]propanamido]ethyl)sulfanyl]-4-oxobutanoate], the inhibition at 10 µM in data set [6] was not below 10%; in data set [11] (Homo sapiens, 24 h, 10 uM, read-out: % decrease in Thrombomodulin), not below 20%; in [15] (Homo sapiens, HUVEC, 24 h, read-out: % decrease in IL-1α), not below 20%; in [15] (Homo sapiens, HUVEC, 24 h, read-out: % decrease in TissueFactor), not below 10%. In addition, the “% decrease in MMP-9” value in data set [7] (1 uM) and in data set [13] was not below 10% throughout. Besides, the “% decrease in MCP-1” value was not below 10% in data set [7] (10 uM, procedure of 834) and not below 10% in data set [12]. Further, the activation at 50 µM in [1] (50 uM) was not below 30%; in data set [3] (assay condition D (1 mM glucose, 10% FBS), read-out: Increase in Spare Capacity AUC) it was not below 10%. The “% decrease in sIL-2” value in data set [8] (1 uM, procedure of Example 829) is on record as not below 10%. For the same compound, in data set [8] (1 uM, procedure of Example 829), the “% decrease in sTNFα” value is listed as not below 10%. Also, the “% decrease in PBMC cytotoxicity” value in [8] (human, 72 h, 1 µM) is listed as not below 10%. In addition, the “% decrease in IL-8” value in data set [9] is not below 10%. For the same compound, the activation at 10 µM in [10] is not below 10%; in data set [3] (assay condition A (10 mM glucose, 2 mM L-glutamine, 1 mM pyruvate, 10% FBS), 10 μM, read-out: Increase in Spare Capacity AUC), not below 10%; in data set [13] (Homo sapiens, 24 h, read-out: % increase in VCAM-1), not below 10%. Further, the “% decrease in HLA-DR” value in [11] (1 uM) is reported as not below 10%. Besides, in data set [11] (1 uM), the “% decrease in Tissue Factor” value is recorded as not below 10%. The “% decrease in M-CSF” value in [11] (1 uM, procedure of Example 832) was not below 10%; in data set [15] (1 uM) it was not below 10%. Besides, the “% decrease in VCAM-1” value in data set [11] (1 uM, procedure of Example 832) is not below 10%. In addition, the “% decrease in CXCL9” value in data set [11] (10 uM) is not below 10%. Besides, the inhibition at 1 µM was not below 20% in data set [14] and not below 10% in [15] (Homo sapiens, HUVEC, 24 h, 1 uM, read-out: % decrease in IL-8).

Values taken from patent publication US20230107216A1, “PANTETHEINE DERIVATIVES AND USES THEREOF” (Comet Therapeutics, Inc., priority 2018, published 2023).
